Earlier results in patent publication US11123300B2, “Immediate release tablet of a benzothiophene compound” (Hexal AG, priority 2016, dated 2021).

O=c1ccc2ccc(OCCCCN3CCN(c4cccc5sccc45)CC3)cc2[nH]1 [brexpiprazole, 7-[4-[4-(1-Benzothiophen-4-yl)piperazin-1-yl]butoxy]quinolin-2(1H)-one]
solubility of brexpiprazole in water: 2.27 µg/mL
